Each structure is given as a SMILES string.

The target in the first test is T1, human capsaicin receptor (Homo sapiens, UniProt Q8NER1).
T1 construct: pBK-CMV expression construct encoding the full length human capsaicin receptor; expressed in transfected cells
T1 sequence (Q8NER1 whole entry): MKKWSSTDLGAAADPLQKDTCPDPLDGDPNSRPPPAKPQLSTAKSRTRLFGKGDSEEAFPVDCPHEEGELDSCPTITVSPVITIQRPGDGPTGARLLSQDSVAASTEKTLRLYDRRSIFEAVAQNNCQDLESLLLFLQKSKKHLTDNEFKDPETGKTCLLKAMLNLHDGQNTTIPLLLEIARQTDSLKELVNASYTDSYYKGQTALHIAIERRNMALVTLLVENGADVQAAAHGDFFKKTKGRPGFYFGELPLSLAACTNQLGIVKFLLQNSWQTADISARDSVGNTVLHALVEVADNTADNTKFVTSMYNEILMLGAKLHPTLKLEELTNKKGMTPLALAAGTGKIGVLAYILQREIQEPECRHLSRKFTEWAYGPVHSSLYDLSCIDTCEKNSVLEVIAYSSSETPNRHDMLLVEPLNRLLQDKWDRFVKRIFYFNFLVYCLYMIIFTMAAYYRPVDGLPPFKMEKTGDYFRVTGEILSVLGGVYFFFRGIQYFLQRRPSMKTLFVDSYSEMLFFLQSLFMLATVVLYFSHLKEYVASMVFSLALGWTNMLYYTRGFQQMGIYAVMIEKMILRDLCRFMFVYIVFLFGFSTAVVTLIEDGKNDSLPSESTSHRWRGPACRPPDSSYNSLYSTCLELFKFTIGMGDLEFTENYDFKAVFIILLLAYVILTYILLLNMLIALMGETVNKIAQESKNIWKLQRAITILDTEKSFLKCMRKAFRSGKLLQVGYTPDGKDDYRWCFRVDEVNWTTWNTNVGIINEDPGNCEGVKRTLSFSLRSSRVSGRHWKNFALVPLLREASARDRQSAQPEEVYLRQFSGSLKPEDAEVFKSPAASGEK
Description: Calcium mobilization assay, determination of antagonist activity (Example 6). Type of test: cell-based. The note with it: Table II; IC50 determined as described in Example 6. In short, it runs like this: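 HEK293 clonal lines stably expressing full-length human capsaicin receptor, loaded with Fluo-3 AM in KRH buffer pH 7.4, 1–2 h at 37 °C. Compounds (1–5 μM final) preincubated 0.5–6 h at room temperature, then capsaicin at its EC50 added. FLIPR/Fluoroskan calcium signal; IC50 as 50% decrease of capsaicin response.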
(In general: Calcium flux is commonly read through the fluorescence of an indicator in the cells.)
Turning to `Cc1cccnc1N1CCN(c2cc(-c3ccc(C)c4ccccc34)nc(N3CCOCC3)n2)[C@H](C)C1` [Example 522, 4-[4-[(2R)-2-methyl-4-(3-methylpyridin-2-yl)piperazin-1-yl]-6-(4-methyl-1-naphthyl)pyrimidin-2-yl]morpholine], the concentration for half-maximal inhibition (IC50) was not above 1000 nM.

Consider `C=CCN1CCN(c2nc(-c3cccc(F)c3)nc(N3CCN(c4ncccc4C(F)(F)F)CC3)n2)CC1` [Example 448, 2-(4-allylpiperazin-1-yl)-4-(3-fluorophenyl)-6-{4-[3-(trifluoromethyl)pyridin-2-yl]piperazin-1-yl}-1,3,5-triazine], for which the half-maximal inhibitory concentration (IC50) is not above 1000 nM.

On to `Cc1cccnc1N1CCN(c2cc(-c3ccc(C(C)C)cc3)nc(N3CCOCC3)n2)[C@H](C)C1` [Example 504, 4-{4-(4-isopropylphenyl)-6-[(2R)-2-methyl-4-(3-methylpyridin-2-yl)piperazin-1-yl]pyrimidin-2-yl}morpholine], for which the IC50 is not above 1000 nM.

For the compound `CN(CCO)c1nc(-c2ccc(F)c(Cl)c2)cc(N2CCN(c3ncccc3C(F)(F)F)CC2)n1` [Example 549, 2-[(4-(3-chloro-4-fluorophenyl)-6-{4-[3-(trifluoromethyl)pyridin-2-yl]piperazin-1-yl}pyrimidin-2-yl)(methyl)amino]ethanol], the IC50 is not above 1000 nM.

Turning to `CN1CCCC(Oc2nc(-c3ccc(F)c(Cl)c3)cc(N3CCN(c4ncccc4C(F)(F)F)CC3)n2)C1` (stereo not drawn) [Example 559, 4-(3-chloro-4-fluorophenyl)-2-[(1-methylpiperidin-3-yl)oxy]-6-{4-[3-(trifluoromethyl)pyridin-2-yl]piperazin-1-yl}pyrimidine], the IC50 is not above 1000 nM.

Consider `CSc1cccc(-c2cc(N3CCN(c4ncccc4C(F)(F)F)C[C@H]3C)nc(N3CCOCC3)n2)c1` [Example 538, 4-(4-[3-(methylthio)phenyl]-6-{(2R)-2-methyl-4-[3-(trifluoromethyl)pyridin-2-yl]piperazin-1-yl}pyrimidin-2-yl)morpholine], for which the IC50 is not above 1000 nM.

In the case of `COc1ccc(-c2cc(N3CCN(c4ncccc4C)C[C@H]3C)nc(N3CCOCC3)n2)cc1F` [Example 540, 4-{4-(3-fluoro-4-methoxyphenyl)-6-[(2R)-2-methyl-4-(3-methylpyridin-2-yl)piperazin-1-yl]pyrimidin-2-yl}morpholine], the concentration for half-maximal inhibition (IC50) is not above 1000 nM.

The same test, now with this note: Table II; IC50 determined as described in Example 6 (antagonist activity, calcium mobilization).
For the compound `Cc1ccc(-c2cc(N3CCN(c4nccnc4Cl)C[C@H]3C)nc(N3CCC[C@@H]3C)n2)cc1F` [Example 992, 4-[(2R)-4-(3-chloropyrazin-2-yl)-2-methylpiperazin-1-yl]-6-(3-fluoro-4-methylphenyl)-2-[(2S)-2-methylpyrrolidin-1-yl]pyrimidine], the IC50 was not above 1000 nM.

`Cc1ccc(-c2cc(N3CCN(c4ncccc4Cl)C[C@H]3C)nc(N3CCC[C@@H]3C)n2)cc1F` [Example 994, 4-[(2R)-4-(3-chloropyridin-2-yl)-2-methylpiperazin-1-yl]-6-(3-fluoro-4-methylphenyl)-2-[(2S)-2-methylpyrrolidin-1-yl]pyrimidine]: the half-maximal inhibitory concentration (IC50) was not above 1000 nM.

Consider `Cc1ccc(-c2cc(N3CCN(c4ncccc4Cl)C[C@H]3C)nc(N3CCC[C@H]3C)n2)cc1F` [Example 979, 4-[(2R)-4-(3-chloropyridin-2-yl)-2-methylpiperazin-1-yl]-6-(3-fluoro-4-methylphenyl)-2-[(2R)-2-methylpyrrolidin-1-yl]pyrimidine], for which the half-inhibitory concentration (IC50) is not above 1000 nM.

Turning to `Cc1ccnnc1N1CCN(c2cc(-c3ccc(F)c(Cl)c3)nc(N3CCCC3C)n2)CC1` (stereo not drawn) [Example 1001, 3-{4-[6-(3-ohloro-4-fluorophenyl)-2-(2-methylpyrrolidin-1-yl)pyrimidin-4-yl]piperazin-1-yl}-4-methylpyridazine], the half-maximal inhibitory concentration (IC50) was not above 1000 nM.

Still in this test, the particulars now being: Table II; determined as described in Example 6 (antagonist activity); "*" = 1 micromolar or less.
Take `C[C@@H]1CN(c2ncccc2Cl)CCN1c1cc(-c2ccc(F)c(Cl)c2)nc(Cl)n1` (stereo in doubt) [Example 827, 2-chloro-4-(3-chloro-4-fluorophenyl)-6-[4-(3-chloropyridin-2-yl)-2-methylpiperazin-1-yl]pyrimidine]: the 50% inhibitory concentration (IC50) was not above 1000 nM.

With `C[C@H]1CN(c2ncccc2Cl)CCN1c1cc(-c2ccc(F)c(Cl)c2)nc(N2CCCC2)n1` [Example 946, 4-(3-chloro-4-fluorophenyl)-6-[(2S)-4-(3-chloropyridin-2-yl)-2-methylpiperazin-1-yl]-2-pyrrolidin-1-ylpyrimidine], the IC50 is not above 1000 nM.

For `Cc1cc(C#N)cnc1N1CCN(c2cc(-c3ccc(F)cc3)nc(N3CCCC3C)n2)CC1` (stereo not drawn) [Example 931, 6-{4-[6-(4-fluorophenyl)-2-(2-methylpyrrolidin-1-yl)pyrimidin-4-yl]piperazin-1-yl}-5-methylnicotinonitrile], the concentration for half-maximal inhibition (IC50) is not above 1000 nM.

`CCCN1CCN(c2nc(-c3ccc(F)c(Cl)c3)cc(N3CCN(c4ncc(N)cc4C)CC3)n2)CC1` [Example 819, 6-{4-[6-(3-chloro-4-fluorophenyl)-2-(4-propylpiperazin-1-yl)pyrimidin-4-yl]piperazin-1-yl}-5-methylpyridin-3-amine]: the IC50 was not above 1000 nM.

For `C[C@@H]1CN(c2ncccc2F)CCN1c1cc(-c2ccc(F)c(F)c2)nc(N2CCCC2)n1` [Example 896, 4-(3,4-difluorophenyl)-6-[(2R)-4-(3-fluoropyridin-2-yl)-2-methylpiperazin-1-yl]-2-pyrrolidin-1-ylpyrimidine], the IC50 is not above 1000 nM.

As to `N#Cc1cncc(-c2cc(N3CCN(c4ncccc4C(F)(F)F)CC3)nc(N3CCCC3)n2)c1` [Example 886, 5-(2-pyrrolidin-1-yl-6-{4-[3-(trifluoromethyl)pyridin-2-yl]piperazin-1-yl}pyrimidin-4-yl)nicotinonitrile], the IC50 is not above 1000 nM.

For the compound `C[C@@H]1CN(c2nccnc2Cl)CCN1c1cc(-c2ccc(F)c(F)c2)nc(N2CCOCC2)n1` [Example 822, 4-[4-[(2R)-4-(3-chloropyrazin-2-yl)-2-methylpiperazin-1-yl]-6-(3,4-difluorophenyl)pyrimidin-2-yl]morpholine], the half-inhibitory concentration (IC50) was not above 1000 nM.

As for `C[C@@H]1CN(c2ncccc2Cl)CCN1c1cc(-c2ccc(Cl)c(F)c2)nc(N2CCCC2)n1` [Example 833, 4-(4-chloro-3-fluorophenyl)-6-[(2R)-4-(3-chloropyridin-2-yl)-2-methylpiperazin-1-yl]-2-pyrrolidin-1-ylpyrimidine], the IC50 was not above 1000 nM.

As to `C[C@@H]1CN(c2nccnc2Cl)CCN1c1cc(-c2ccc(F)cc2)nc(N2CCCC2)n1` [Example 928, 4-[(2R)-4-(3-chloropyrazin-2-yl)-2-methylpiperazin-1-yl]-6-(4-fluorophenyl)-2-pyrrolidin-1-ylpyrimidine], the IC50 is not above 1000 nM.

For the compound `Cc1cc(-c2cc(Cl)nc(N3CCN(c4ncccc4Cl)C[C@@H]3C)n2)ccc1F` (stereo in doubt) [Example 899, 4-chloro-2-[4-(3-chloropyridin-2-yl)-2-methylpiperazin-1-yl]-6-(4-fluoro-3-methylphenyl)pyrimidine], the IC50 was not above 1000 nM.

Take `CCCN1CCC(c2nc(-c3ccc(F)c(Cl)c3)cc(N3CCN(c4ncccc4C(F)(F)F)CC3)n2)CC1` [Example 872, 4-(3-chloro-4-fluorophenyl)-2-(1-propylpiperidin-4-yl)-6-{4-[3-(trifluoromethyl)pyridin-2-yl]piperazin-1-yl}pyrimidine]: the IC50 was not above 1000 nM.

On to `C[C@@H]1CN(c2nccnc2Cl)CCN1c1nc(Cl)cc(-c2ccc(F)cc2)n1` [Example 919, 4-chloro-2-[(2R)-4-(3-chloropyrazin-2-yl)-2-methylpiperazin-1-yl]-6-(4-fluorophenyl)pyrimidine], for which the IC50 is not above 1000 nM.

The same test, now with this note: Table II; determined as described in Example 6; class symbol.
Take `Cc1ccc(C)c(-c2nc(N3CCOCC3)nc(N3CCN(c4ccccn4)CC3)n2)c1` [Example 269, 2-(2,5-dimethylphenyl)-4-morpholin-4-yl-6-(4-pyridin-2-ylpiperazin-1-yl)-1,3,5-triazine]: the IC50 is not above 1000 nM.

The test is the same for the next values; noted with them: determined as described in Example 6 (calcium mobilization, antagonist activity); Table II.
Take `CC1CCC(C)N1c1nc(-c2ccc(F)c(Cl)c2)cc(N2CCN(c3ncccc3Cl)CC2)n1` (stereo not drawn) [Example 751, 4-(3-chloro-4-fluorophenyl)-6-[4-(3-chloropyridin-2-yl)piperazin-1-yl]-2-(2,5-dimethylpyrrolidin-1-yl)pyrimidine]: the IC50 is not above 1000 nM.

In the case of `Cc1cc(-c2cc(N3CCN(c4ncccc4C(F)(F)F)CC3)nc(NS(=O)(=O)C(C)C)n2)ccc1F` [Example 690, N-(4-(4-fluoro-3-methylphenyl)-6-{4-[3-(trifluoromethyl)pyridin-2-yl]piperazin-1-yl}pyrimidin-2-yl)propane-2-sulfonamide], the IC50 was not above 1000 nM.

As for `Cc1cc(-c2cc(N3CCN(c4ncccc4C(F)(F)F)CC3)nc(N(C)S(=O)(=O)C(C)C)n2)ccc1F` [Example 691, N-(4-(4-fluoro-3-methylphenyl)-6-{4-[3-(trifluoromethyl)pyridin-2-yl]piperazin-1-yl}pyrimidin-2-yl)-N-methytpropane-2-sulfonamide], the IC50 is not above 1000 nM.

`Fc1ccc(-c2cc(N3CCN(c4ncccc4Cl)CC3)nc(N3CCCCC3)n2)cc1Cl` [Example 715, 4-(3-chloro-4-fluorophenyl)-6-[4-(3-chloropyridin-2-yl)piperazin-1-yl]-2-piperidin-1-ylpyrimidine]: the IC50 was not above 1000 nM.

In the case of `CC(C)n1ccnc1-c1nc(-c2ccc(F)c(Cl)c2)cc(N2CCN(c3ncccc3C(F)(F)F)CC2)n1` [Example 683, 4-(3-chloro-4-fluorophenyl)-2-(1-isopropyl-1H-imidazol-2-yl)-6-{4-[3-(trifluoromethyl)pyridin-2-yl]piperazin-1-yl}pyrim:dine], the 50% inhibitory concentration (IC50) was not above 1000 nM.

For `COC[C@@H]1CCCN1c1nc(-c2ccc(F)c(C)c2)cc(N2CCN(c3ncccc3Cl)CC2)n1` [Example 726], the half-inhibitory concentration (IC50) is not above 1000 nM.

What is called IC50 is the point on the concentration scale where inhibition reaches its midpoint.

Values taken from patent US7566712B2, “Biaryl piperazinyl-pyridine analogues” (Neurogen Corporation, priority 2003, dated 2009).
